In patent publication US20100029654A1, “CARDIOVASCULAR COMPOSITIONS AND USE OF THE SAME FOR THE TREATMENT OF ALZHEIMER'S DISEASE” (MOUNT SINAI SCHOOL OF MEDICINE, priority 2006, published 2010):
Structures can show the parent of a compound that is named as a salt. Where two headings read alike, the source gives them in different places.

Key:
[1] = system: primary cortico-hippocampal neuron cultures; assay: lactate dehydrogenase (LDH) activity assay in parallel neuron cultures
Experimental: For in vitro treatments drugs available from “The Spectrum Collection” in stocks of 10 mM in DMSO were applied directly to cultures to the desired concentrations (final 1% DMSO); control primary neuron cultures from Tg2576 embryos were treated with vehicle resulting in a final 1% DMSO.
Cell viability was assessed using a commercial available LDH assay kit according to the manufacture's instruction (Promega).

Aβ1-40 = Aβ1-40 content in conditioned medium of primary cortico-hippocampal neuron cultures from Tg2576 mice (ELISA; primary and secondary dose-response screening); assay type: cell-based, mouse; conditions: for activity at 100 µM: Mus musculus, Neuron, 24 h, read-out: Ab1-40 (% of ctl); for activity at 100 µM / Ab1-40 (% of ctl): drug 100 μM; for reduced Aβ1-40: <85% of ctl
Outline: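 Primary cortico-hippocampal neurons from embryonic Tg2576 mice were plated at 1.0×10^5 cells per well on poly-D-lysine-coated 96-well plates in Neurobasal with 2% B27, 0.5 mM L-glutamine and 1% penicillin-streptomycin. Cultures received drug in 1% DMSO, and Aβ1-40 in the conditioned medium was measured by BioSource ELISA 24 hours after treatment, relative to vehicle controls.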

Aβ1-42 = Aβ1-42 content in conditioned medium of primary cortico-hippocampal neuron cultures from Tg2576 mice (ELISA; primary and secondary dose-response screening); assay type: cell-based, mouse; conditions: for activity at 100 µM: Mus musculus, Neuron, 24 h, read-out: Ab1-42 (% of ctl); for activity at 100 µM / Ab1-42 (% of ctl): drug 100 μM; for reducing Aβ1-42: <85% of ctl
Outline: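 This screen tested cardiovascular drugs for Aβ-lowering in Tg2576 embryonic cortico-hippocampal neuron cultures plated at 1.0×10^5 cells per well in poly-D-lysine-coated 96-well plates with Neurobasal/B27 medium. Drugs at 100 μM were added directly to the medium in duplicate, with 1% DMSO alone as the control. Conditioned medium was then collected, and its Aβ1-42 level was quantified with BioSource ELISA kits.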

[2] = system: primary cortico-hippocampal neuron cultures; assay: MTT in primary screening
[3] = Primary Screening, table sorted by Aβ1-40
[4] = primary screening, table sorted by Aβ1-42
[5] = primary screening, Tg2576 neuron cultures, table sorted by Aβ1-42

Row | SMILES | LDH (% of ctl) [1, 3] | LDH (% of ctl) [1, 4] | MTT (% of ctl) [2, 3] | MTT (% of ctl) [2, 4] | activity at 100 µM (Aβ1-40; [3]) [%] | activity at 100 µM (Aβ1-40; [5]) [%] | activity at 100 µM (Aβ1-42; [3]) [%] | activity at 100 µM (Aβ1-42; [5]) [%] | reducing Aβ1-42 (Aβ1-42; primary screening) | reduced Aβ1-40 (Aβ1-40; primary screening) | Ab1-40 (% of ctl) (Aβ1-40; [3]) | Ab1-40 (% of ctl) (Aβ1-40; [5]) | Ab1-42 (% of ctl) (Aβ1-42; [3]) | Ab1-42 (% of ctl) (Aβ1-42; [5])
1 | CCCCC1=NC2(CCCC2)C(=O)N1Cc1ccc(-c2ccccc2-c2nnn[nH]2)cc1 [Irbesartan] | 112.5 % of ctl | 112.5 % of ctl | 98.9 % of ctl | 98.9 % of ctl | 89.7 | 89.7 | 82.3 | 82.3 | useful in reducing Aβ1-42 |  |  |  |  | 
2 | CCOC(=O)[C@H](CCc1ccccc1)N[C@@H](C)C(=O)N1[C@H](C(=O)O)C[C@@H]2CCC[C@@H]21 [Ramipril] | 96.4 % of ctl | 96.4 % of ctl | 102.9 % of ctl | 102.9 % of ctl | 107 | 107 | 105 | 105 |  |  |  |  |  | 
3 | CCCc1nc2c(C)cc(-c3nc4ccccc4n3C)cc2n1Cc1ccc(-c2ccccc2C(=O)O)cc1 [Telmisartan] | 111.3 % of ctl | 111.3 % of ctl | 109.4 % of ctl | 109.4 % of ctl | 91.1 | 91.1 | 112 | 112 |  |  |  |  |  | 
4 | CCC(=O)O[C@@H](O[P@](=O)(CCCCc1ccccc1)CC(=O)N1C[C@H](C2CCCCC2)C[C@H]1C(=O)O)C(C)C [Fosinopril Sodium] | 75.6 % of ctl | 75.6 % of ctl | 101.4 % of ctl | 101.4 % of ctl | 94.7 | 94.7 | 95 | 95 |  |  |  |  |  | 
5 | COc1ccc2cc1Oc1ccc(cc1)C[C@H]1c3cc(c(OC)cc3CCN1C)Oc1c(OC)c(OC)cc3c1[C@H](C2)N(C)CC3 [Tetrandrine] | 117.6 % of ctl | 117.6 % of ctl | 112.5 % of ctl | 112.5 % of ctl | 4.5 | 4.5 | 25.2 | 25.2 |  |  |  |  |  | 
6 | Cc1cc(C(C)(C)C)c(O)c(C)c1CC1=NCCN1 [Oxymetazoline Hydrochloride] | 97.0 % of ctl | 97.0 % of ctl | 97.3 % of ctl | 97.3 % of ctl | 78 | 78 | 44.9 | 44.9 | useful in reducing Aβ1-42 | reduced Aβ1-40 |  |  |  | 
7 | CCOC(=O)[C@H](CCc1ccccc1)N[C@@H](C)C(=O)N1CCC[C@H]1C(=O)O [Enalapril Maleate] | 118.9 % of ctl | 118.9 % of ctl | 126.4 % of ctl | 126.4 % of ctl | 101 | 101 | 97.6 | 97.6 |  |  |  |  |  | 
8 | C=CCc1ccccc1OCC(O)CNC(C)C (stereo not shown) [Alprenolol] | 128.0 % of ctl | 128.0 % of ctl | 92.2 % of ctl | 92.2 % of ctl | 93.8 | 93.8 | 106 | 106 |  |  |  |  |  | 
9 | CC(=O)S[C@@H]1CC2=CC(=O)CC[C@]2(C)[C@H]2CC[C@@]3(C)[C@@H](CC[C@@]34CCC(=O)O4)[C@H]12 [Spironolactone] | 100.6 % of ctl | 100.6 % of ctl | 117.0 % of ctl | 117.0 % of ctl | 60.4 | 60.4 | 70.7 | 70.7 | useful in reducing Aβ1-42 | reduced Aβ1-40 |  |  |  | 
10 | CC(=O)O[C@H]1C[C@H](O[C@H]2[C@@H](O)C[C@H](O[C@H]3[C@@H](O)C[C@H](O[C@H]4CC[C@@]5(C)[C@H](CC[C@@H]6[C@@H]5C[C@@H](O)[C@]5(C)[C@@H](C7=CC(=O)OC7)CC[C@]65O)C4)O[C@@H]3C)O[C@@H]2C)O[C@H](C)[C@H]1O[C@@H]1O[C@H](CO)[C@@H](O)[C@H](O)[C@H]1O [Lanatoside C] | 166.0 % of ctl | 166.0 % of ctl | 66.5 % of ctl | 66.5 % of ctl |  |  |  |  |  | reduced Aβ1-40 | 45.8 % of ctl | 45.8 % of ctl | 100.3 % of ctl | 100.3 % of ctl
11 | COc1cc2ccc(=O)oc2cc1O [Scopoletin] | 106.2 % of ctl | 106.2 % of ctl | 99.7 % of ctl | 99.7 % of ctl | 71.9 | 71.9 | 109 | 109 |  | reduced Aβ1-40 |  |  |  | 

More lines, main results first:

Row | LDH (% of ctl) [1, 3] | LDH (% of ctl) [1, 4] | MTT (% of ctl) [2, 3] | MTT (% of ctl) [2, 4] | SMILES | activity at 100 µM (Aβ1-40; [3]) [%] | activity at 100 µM (Aβ1-40; [5]) [%] | activity at 100 µM (Aβ1-42; [3]) [%] | activity at 100 µM (Aβ1-42; [5]) [%] | reducing Aβ1-42 (Aβ1-42; primary screening) | reduced Aβ1-40 (Aβ1-40; primary screening) | Ab1-40 (% of ctl) (Aβ1-40; [3]) | Ab1-40 (% of ctl) (Aβ1-40; [5]) | Ab1-42 (% of ctl) (Aβ1-42; [3]) | Ab1-42 (% of ctl) (Aβ1-42; [5])
12 | 281.1 % of ctl | 281.1 % of ctl | 102.1 % of ctl | 102.1 % of ctl | NS(=O)(=O)c1cc2c(cc1Cl)NCNS2(=O)=O [Hydrochlorothiazide] | 89.5 | 89.5 | 116 | 116 |  |  |  |  |  | 
13 | 99.9 % of ctl | 99.9 % of ctl | 99.2 % of ctl | 99.2 % of ctl | C[C@@H]1CCC[C@H](C)N1NC(=O)c1ccc(Cl)c(S(N)(=O)=O)c1 [Clopamide] | 92 | 92 | 98.9 | 98.9 |  |  |  |  |  | 
14 | 1188.9 % of ctl | 1188.9 % of ctl | 13.3 % of ctl | 13.3 % of ctl | CCOC(=O)C1=C(COCCN)NC(C)=C(C(=O)OC)C1c1ccccc1Cl (stereo not shown) [Amlodipine Besylate] | 4.9 | 4.9 | 10.2 | 10.2 | useful in reducing Aβ1-42 | reduced Aβ1-40 |  |  |  | 
15 | 109.0 % of ctl | 109.0 % of ctl | 99.7 % of ctl | 99.7 % of ctl | C=CCSCC1Nc2cc(Cl)c(S(N)(=O)=O)cc2S(=O)(=O)N1 (stereo not shown) [Althiazide] | 74.4 | 74.4 | 65.4 | 65.4 | useful in reducing Aβ1-42 | reduced Aβ1-40 |  |  |  | 
16 | 107.5 % of ctl | 107.5 % of ctl | 99.2 % of ctl | 99.2 % of ctl | Cc1cccc(Nc2ccncc2S(=O)(=O)NC(=O)NC(C)C)c1 [Torsemide] | 107 | 107 | 104 | 104 |  |  |  |  |  | 
17 | 85.3 % of ctl | 85.3 % of ctl | 104.2 % of ctl | 104.2 % of ctl | CC1Cc2ccccc2N1NC(=O)c1ccc(Cl)c(S(N)(=O)=O)c1 (stereo not shown) [Indapamide] | 107 | 107 | 91.3 | 91.3 |  |  |  |  |  | 
18 | 102.6 % of ctl | 102.6 % of ctl | 105.5 % of ctl | 105.5 % of ctl | NS(=O)(=O)c1cc2c(cc1Cl)NC(C(Cl)Cl)NS2(=O)=O (stereo not shown) [Trichlormethiazide] | 89.3 | 89.3 | 84.5 | 84.5 | useful in reducing Aβ1-42 |  |  |  |  | 
19 | 96.4 % of ctl | 96.4 % of ctl | 98.5 % of ctl | 98.5 % of ctl | CC[C@]12CCCN3CCc4c(n(c5ccccc45)[C@@](O)(C(=O)OC)C1)[C@@H]32 [Vincamine] | 99.1 | 99.1 | 104 | 104 |  |  |  |  |  | 
20 | 108.9 % of ctl | 108.9 % of ctl | 88.8 % of ctl | 88.8 % of ctl | CC(C)NCC(O)c1ccc2ccccc2c1 (stereo not shown) [Pronetalol Hydrochloride] | 88 | 88 | 94.6 | 94.6 |  |  |  |  |  | 
